# Test results taken from patent US10287292B2, “CXCR7 antagonists” (CHEMOCENTRYX, INC., priority 2012, dated 2019).
# Biological target: CXCR7 receptor (Homo sapiens (Human), UniProt P25106)
# Assay: Serum Binding Analysis: displacement of 125I-labeled SDF-1 from CXCR7 in 100% human serum
# Settings: 125I SDF-1 displacement in 100% human serum, MCF-7 and/or MDA-MB-435S CXCR7 transfected cells, 3 hrs at 4° C.; read-out: Avg Ser IC50
# Procedure: The compounds were combined with cells expressing the CXCR7 receptor (e.g., MCF cells or cells transfected to express CXCR7) in the presence of the 125 I-labeled SDF-1 chemokine as detailed in Determination of IC50 values. Reagents and Cells (see below). The ability of the compounds to displace the labeled chemokine from the CXCR7 receptor sites at multiple concentrations was then determined with the screening process.
# In Table 1, Avg Bind IC50 refers to the Buffer Binding Analysis described below, while Avg Ser IC50 refers to the Serum Binding Analysis described below. All compounds were prepared as described in the Examples above, or by related methods substituting readily available starting materials.
# ^125I-labeled SDF-1 was purchased from Perkin-Elmer Life Sciences, Inc. (Boston, Mass.). The MCF-7 (adenocarcinoma; mammary gland) cell line was obtained from the American Type Culture Collection (ATCC, Manassas, Va.) or and was cultured in DMEM (Mediatech, Herndon, Va.) supplemented with 10% fetal bovine serum (FBS) (HyClone Logan, Utah) and bovine insulin (0.01 mg/mL) (Sigma. St. Louis, Mo.) at 37° C. in a humidified incubator at a 5% CO2/air mixture. CXCR7 transfected MDA-MB-435S were produced as described below. MDA-MB-435S human breast cancer line, was purchased from ATCC, and cultured in DMEM/10% FBS medium. The complete coding sequence of the gene encoding CXCR7 (a.k.a. CCXCKR2, hRDC1), was isolated from MCF-7 cells using μMACs mRNA isolation kit (Miltenyi Biotec, Auburn, Calif.). DNA contamination was removed by DNase digestion via RNeasy columns (Qiagen, Inc., Valencia, Calif.) and cDNA was generated using GeneAmp RNA PCR Core Kit (Applied Biosystems, Foster City. Calif.). PCR of cDNA samples was performed using Taq PCR Master Mix kit (Qiagen. Inc.) and hRDC1 primers harboring 5′ and 3′ Not I sites (hRDC1F 5′ […]-3, hRDC1R 5′-[…]-3′) Not I digested PCR product was ligated into Not I digested pcDNA3.1(+)(Invitrogen, Carlsbad, Calif.) and screened for orientation and sequence confirmed. Plasmid DNA was then isolated from overnight bacterial cultures by Maxiprep (Qiagen, Inc.). Plasmid DNA (10 μg) was added to MDA-MB-435s cells and cells were electroporated (0.22 kV, 960 uF) via Gene Pulser (Biorad laboratories, Hercules, Calif.). 48 hr post-electroporation, cells were transferred to selection medium (600 ug/ml G418).
# In order to more properly assess the binding efficacy of the compounds, radioligand binding assays were carried out in the presence of 100% human serum to more accurately reflect the in vivo environment. […] Target compounds were tested to determine their ability to bind with CXCR7 sites on MCF-7 and/or MDA-MB-435S CXCR7 transfected cells. Efficiency-maxim/zed radioligand binding using filtration protocols as described in Dairaghi D J, et al., HHV8-encoded vMIP-I selectively engages chemokine receptor CCR5. Agonist and antagonist profiles of viral chemokines., J. Biol. Chem. 1999 Jul. 30; 274(31): 21569-74 and Gosling J, et al., Cutting edge: identification of a novel chemokine receptor that binds dendritic cell- and T cell-active chemokines including ELC, SLC, and TECK, J. Immunol. 2000 Mar. 15; 164(6):2851-6 was used.
# In these assays, MCF-7 and/or MDA-MB-435S cells were interrogated with the target compounds and the ability of these compounds to displace 125 I radiolabeled SDF-1 was assessed using the protocol described in Dairaghi and Gosling. The target compounds were added to the plate to the indicated concentration followed by addition of cells and radiolabeled chemokine (125I SDF-1), both in the following medium (human AB serum with 10 mM HEPES added to stabilize at pH 7.4). All assays were then incubated for 3 hrs at 4° C. with gentle agitation.
# Sequence of CXCR7 receptor (P25106 whole entry): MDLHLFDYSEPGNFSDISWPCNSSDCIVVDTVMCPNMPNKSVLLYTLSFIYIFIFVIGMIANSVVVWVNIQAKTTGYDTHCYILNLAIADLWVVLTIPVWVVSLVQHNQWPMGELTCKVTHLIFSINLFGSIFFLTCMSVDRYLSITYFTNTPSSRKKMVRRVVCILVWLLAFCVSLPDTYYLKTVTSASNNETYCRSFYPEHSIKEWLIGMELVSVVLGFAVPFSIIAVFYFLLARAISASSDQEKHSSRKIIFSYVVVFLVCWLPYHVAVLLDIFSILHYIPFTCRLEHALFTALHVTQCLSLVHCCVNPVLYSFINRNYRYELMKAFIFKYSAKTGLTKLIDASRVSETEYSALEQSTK
row,IC50,SMILES
1,≤ 500 nM,Cc1nc(C(=O)N[C@H]2CCN(c3nccn4ccnc34)C2)nn1-c1ccc(F)cc1 [Compound 1.001]
2,2500 to 15000 nM,N#Cc1ccc(-n2cnc(C(=O)N[C@H]3CCN(c4nccn5ccnc45)C3)n2)cc1 [Compound 1.002]
3,≤ 500 nM,O=C(N[C@H]1CCN(c2nccn3cccc23)C1)c1ncn(-c2ccc(F)cc2)n1 [Compound 1.003]
4,500 to 2500 nM,Cc1ccc(-n2cnc(C(=O)N[C@H]3CCN(c4nccn5ccnc45)C3)n2)cc1 [Compound 1.004]
5,2500 to 15000 nM,CS(=O)(=O)c1ccc(-n2cnc(C(=O)N[C@H]3CCN(c4nccn5ccnc45)C3)n2)cc1 [Compound 1.005]
6,≤ 500 nM,O=C(N[C@H]1CCN(c2nccn3ccnc23)C1)c1ncn(-c2ccccc2F)n1 [Compound 1.006]
7,500 to 2500 nM,CC(C)c1cn2cccc2c(N2CC[C@H](NC(=O)c3ncn(-c4ccc(F)cc4)n3)C2)n1 [Compound 1.007]
8,500 to 2500 nM,CC(C)c1cn2cccc2c(N2CC[C@H](NC(=O)c3ncn(-c4ccccc4)n3)C2)n1 [Compound 1.008]
9,≤ 500 nM,CC(C)c1cn2cccc2c(N2CC[C@H](NC(=O)c3csc(N4CCC(O)CC4)n3)C2)n1 [Compound 1.009]
10,500 to 2500 nM,O=C(N[C@@H]1CCN(c2nccn3ccnc23)C1)c1ncn(-c2ccc(F)cc2)n1 [Compound 1.010]
11,2500 to 15000 nM,O=C(N[C@H]1CCN(c2nccn3ccnc23)C1)c1ccc(N2CCC(O)CC2)nn1 [Compound 1.011]
12,≤ 500 nM,CCc1cn2cccc2c(N2CC[C@H](NC(=O)c3csc(N4CCC(O)CC4)n3)C2)n1 [Compound 1.012]
13,≤ 500 nM,CCc1cn2cccc2c(N2CC[C@H](NC(=O)c3ncn(-c4ccc(F)cc4)n3)C2)n1 [Compound 1.013]
14,≤ 500 nM,O=C(N[C@H]1CCN(c2nccn3ccnc23)C1)c1ncn(-c2ccc(F)c(F)c2)n1 [Compound 1.014]
15,≤ 500 nM,CCc1cn2cccc2c(N2CC[C@H](NC(=O)c3ncn(-c4ccccc4)n3)C2)n1 [Compound 1.015]
16,≤ 500 nM,O=C(N[C@H]1CCN(c2nccn3ccnc23)C1)c1ncn(-c2cccc(F)c2)n1 [Compound 1.016]
17,≤ 500 nM,O=C(N[C@H]1CCN(c2nccn3cccc23)C1)c1cn(-c2ccccc2)nn1 [Compound 1.017]
18,2500 to 15000 nM,O=C(N[C@H]1CCN(c2nccn3nccc23)C1)c1ncn(-c2ccccc2)n1 [Compound 1.018]
19,≤ 500 nM,Cc1ccc2nc(C(=O)N[C@H]3CCN(c4nc(C)cn5cccc45)C3)ncc2c1 [Compound 1.019]
20,≤ 500 nM,Cc1cn2cccc2c(N2CC[C@H](NC(=O)c3ncn(-c4ccc(F)cc4)n3)C2)n1 [Compound 1.020]

row,IC50,SMILES
1,≤ 500 nM,Cc1cn2cccc2c(N2CC[C@H](NC(=O)c3noc(-c4ccccc4)n3)C2)n1 [Compound 1.021]
2,≤ 500 nM,Cc1cn2cccc2c(N2CC[C@H](NC(=O)c3ncn(-c4ccc(Cl)cc4)n3)C2)n1 [Compound 1.022]
3,≤ 500 nM,Cc1cn2cccc2c(N2CC[C@H](NC(=O)c3csc(-c4ccccc4)n3)C2)n1 [Compound 1.023]
4,≤ 500 nM,Cc1cn2cccc2c(N2CC[C@H](NC(=O)c3coc(-c4ccccc4)n3)C2)n1 [Compound 1.024]
5,≤ 500 nM,Cc1cn2cccc2c(N2CC[C@H](NC(=O)c3csc(N4CCCC4)n3)C2)n1 [Compound 1.025]
6,≤ 500 nM,O=C(N[C@H]1CCN(c2nccn3ccnc23)C1)c1csc(N2CCC2)n1 [Compound 1.026]
7,≤ 500 nM,O=C(N[C@H]1CCN(c2nccn3cccc23)C1)c1ncc(C2CCCC2)cn1 [Compound 1.028]
8,≤ 500 nM,Cc1cn2cccc2c(N2CC[C@H](NC(=O)c3ccn(-c4ccc(Cl)cc4)n3)C2)n1 [Compound 1.029]
9,≤ 500 nM,Cc1cn2cccc2c(N2CC[C@H](NC(=O)c3cn(-c4ccccc4)cn3)C2)n1 [Compound 1.030]
10,≤ 500 nM,Cc1cn2ccnc2c(N2CC[C@H](NC(=O)c3cn(-c4ccccc4)cn3)C2)n1 [Compound 1.031]
11,≤ 500 nM,Cc1cn2ccnc2c(N2CC[C@H](NC(=O)c3ncn(-c4ccccc4)n3)C2)n1 [Compound 1.032]
12,500 to 2500 nM,CC(O)c1cnc(C(=O)N[C@H]2CCN(c3nccn4cccc34)C2)nc1 (stereo partly shown) [Compound 1.033]
13,≤ 500 nM,O=C(N[C@H]1CCN(c2nccn3ccnc23)C1)c1csc(N2CCCC2)n1 [Compound 1.034]
14,≤ 500 nM,O=C(N[C@H]1CCN(c2nccn3cnnc23)C1)c1cn(-c2ccccc2)cn1 [Compound 1.035]
15,≤ 500 nM,O=C(N[C@H]1CCN(c2nccn3ccnc23)C1)c1cn(-c2ccccc2)cn1 [Compound 1.036]
16,≤ 500 nM,Cc1cn2cccc2c(N2CC[C@H](NC(=O)c3csc(N4CCC(O)CC4)n3)C2)n1 [Compound 1.037]
17,≤ 500 nM,O=C(N[C@H]1CCN(c2nccn3cccc23)C1)c1csc(N2CCCC2)n1 [Compound 1.038]
18,≤ 500 nM,O=C(N[C@H]1CCN(c2nccn3cccc23)C1)c1cn(-c2ccccc2)cn1 [Compound 1.039]
19,≤ 500 nM,Cc1cn2cccc2c(N2CC[C@H](NC(=O)c3ncn(-c4ccccc4)n3)C2)n1 [Compound 1.040]
20,≤ 500 nM,Cc1cn2cccc2c(N2CC[C@H](NC(=O)c3ccn(-c4ccc(F)cc4)n3)C2)n1 [Compound 1.041]

row,IC50,SMILES
1,≤ 500 nM,NC(=O)C1(NC(=O)c2ccn(-c3ccc(F)cc3)n2)CCN(c2nccn3cccc23)C1 (stereo not shown) [Compound 1.042]
2,2500 to 15000 nM,O=C(NC1(C(=O)O)CCN(c2nccn3cccc23)C1)c1ccn(-c2ccc(F)cc2)n1 (stereo not shown) [Compound 1.043]
3,≤ 500 nM,Cc1ccc2nc(C(=O)N[C@H]3CCN(c4nccn5cnnc45)C3)ncc2c1 [Compound 1.044]
4,≤ 500 nM,Cc1ccccc1-c1nc(C(=O)N[C@H]2CCN(c3nccn4ccnc34)C2)cs1 [Compound 1.045]
5,≤ 500 nM,Cc1ccccc1-c1nc(C(=O)N[C@H]2CCN(c3nccn4cccc34)C2)cs1 [Compound 1.046]
6,≤ 500 nM,Cc1ccc2nc(C(=O)N[C@H]3CCN(c4nccn5ccnc45)C3)ncc2c1 [Compound 1.048]
7,≤ 500 nM,CN(C)c1cnc(C(=O)N[C@H]2CCN(c3nccn4cccc34)C2)cn1 [Compound 1.049]
8,≤ 500 nM,O=C(NC1(CO)CCN(c2nccn3ccnc23)C1)c1ncn(-c2ccccc2)n1 (stereo not shown) [Compound 1.050]
9,≤ 500 nM,O=C(NC1(CO)CCN(c2nccn3cccc23)C1)c1ncn(-c2ccccc2)n1 (stereo not shown) [Compound 1.051]
10,≤ 500 nM,O=C(N[C@H]1CCN(c2nccn3cccc23)C1)c1cnc(C2CC2)cn1 [Compound 1.052]
11,≤ 500 nM,O=C(N[C@H]1CCN(c2nccn3cccc23)C1)c1ncc2cc(Cl)ccc2n1 [Compound 1.053]
12,≤ 500 nM,Cc1ccccc1-n1ccc(C(=O)N[C@H]2CCN(c3nccn4cnnc34)C2)n1 [Compound 1.054]
13,≤ 500 nM,CC1(O)CCN(c2nc(C(=O)N[C@H]3CCN(c4nccn5cccc45)C3)cs2)CC1 [Compound 1.055]
14,500 to 2500 nM,CC1(O)CCN(c2nc(C(=O)N[C@H]3CCN(c4nccn5ccnc45)C3)cs2)CC1 [Compound 1.056]
15,≤ 500 nM,Cc1ccccc1-n1ccc(C(=O)N[C@H]2CCN(c3nccn4ccnc34)C2)n1 [Compound 1.057]
16,≤ 500 nM,O=C(NC1(CO)CCN(c2nccn3ccnc23)C1)c1csc(N2CCC(O)CC2)n1 (stereo not shown) [Compound 1.058]
17,≤ 500 nM,O=C(NC1(CO)CCN(c2nccn3ccnc23)C1)c1ccn(-c2ccc(F)cc2)n1 (stereo not shown) [Compound 1.059]
18,≤ 500 nM,CC(C)c1cnc(C(=O)NC2(CO)CCN(c3nccn4cccc34)C2)nc1 (stereo not shown) [Compound 1.060]
